# Reference: PMC11992225, “Antibacterial compounds against non-growing and intracellular bacteria” (npj Antimicrobials and Resistance, 2025)
# Read-outs that look alike come from different tables or passages of the source.
# Key:
# [1] = tested on: non-growing S. aureus DSM2569; assay: Dose-dependent killing analysis (CFU spot-plating) of stationary-phase S. aureus;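 as to average Δlog10(CFU/ml) (killing): drug concentration in µM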; assay type: cell-based, Staphylococcus aureus; conditions: S. aureus; for average Δlog10(CFU/ml) (killing): vs 9,097 before treatment
# Method in brief: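 Survival was scored as CFU after overnight growth at 37 °C on LB agar, using spots from 10-fold PBS dilutions of treated cultures. Non-growing S. aureus DSM2569 had been exposed to compound for 24 h in 1:4 CA-MHB, pH 7.4. Three biological replicates were run.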
# non-growing UPEC CFT073 [2] = assay: Dose-dependent killing analysis (CFU spot-plating) of stationary-phase UPEC; assay type: cell-based, Escherichia coli; conditions: for bactericidal effect against stationary-phase UPEC cultures: 20 µM, preliminary experiments;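 as to average Δlog10(CFU/ml) (killing): drug concentration in µM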
# Method in brief: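 Killing assessed by CFU counts: overnight 37 °C LB agar spot plates (10 μl drops of 10-fold PBS dilutions) scored at the lowest dilution with distinct colonies. Samples were compound-treated non-growing UPEC CFT073, 200 μl per well. Performed as three biological replicates.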
# non-growing UPEC CFT073 [3] = assay: Dilution-regrowth assay (screen, hit validation, dose-response) on stationary-phase UPEC; assay type: cell-based, Escherichia coli; conditions: E. coli, regrowth delay of non-growing bacteria, 24 h treatment, OD600 6 h after 2500-fold dilution, read-out: EC50
# Method in brief: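 Regrowth (OD600 after 6 h, 37 °C) of diluted non-growing CFT073, following 24 h compound treatment of 24 h stationary cultures, defines activity relative to untreated control. Screen at 20 µM, validation at 20, 10, 5 µM (duplicates), dose–response in three biological replicates fitted by five-parameter logistic.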
# S. aureus DSM2569 = assay: MIC, standard microdilution assay, growing S. aureus; assay type: cell-based, Staphylococcus aureus; conditions: S. aureus, CA-MHB pH 7.4, read-out: MIC (μM) CA-MHB
# Method in brief: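 Broth microdilution was used throughout. UPEC, P. aeruginosa and S. aureus were tested in CA-MHB buffered with 40 mM HEPES (pH 7.4); UPEC was additionally tested in LPM with 30 mM MES (pH 5.5). S. flexneri was grown in TSB. All determinations were run in triplicate.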
# [4] = E. coli in 1:4 CA-MHB (pH 7.4), drug conc. 0.25
# [5] = E. coli in 1:4 CA-MHB (pH 7.4), drug conc. 0.5
# [6] = E. coli in 1:4 CA-MHB (pH 7.4), drug conc. 1
# [7] = E. coli in 1:4 CA-MHB (pH 7.4), drug conc. 2.5
# [8] = E. coli in 1:4 CA-MHB (pH 7.4), drug conc. 5
# [9] = E. coli in 1:4 CA-MHB (pH 7.4), drug conc. 10
# [10] = E. coli in LPM (pH 5.5), drug conc. 0.25
# [11] = E. coli in LPM (pH 5.5), drug conc. 0.5
# [12] = E. coli in LPM (pH 5.5), drug conc. 1
# [13] = E. coli in LPM (pH 5.5), drug conc. 2.5
# [14] = E. coli in LPM (pH 5.5), drug conc. 5
# [15] = E. coli in LPM (pH 5.5), drug conc. 10
smiles,measurement,setting,value
N#Cc1c(N2C[C@@H]3NCCO[C@H]3C2)c(F)cc2c(=O)c(C(=O)O)cn(C3CC3)c12 [Finafloxacin],"log10(CFU/ml) after treatment, replicate 1",[1]; drug conc. 0.1,8.820 log10(CFU/ml)
same,"log10(CFU/ml) after treatment, replicate 2",[1]; drug conc. 0.1,9.041 log10(CFU/ml)
same,"log10(CFU/ml) after treatment, replicate 3",[1]; drug conc. 0.1,8.982 log10(CFU/ml)
same,average Δlog10(CFU/ml) (killing),[1]; drug conc. 0.1,0.149 log10(CFU/ml)
same,"log10(CFU/ml) after treatment, replicate 1",[1]; drug conc. 0.5,8.857 log10(CFU/ml)
same,"log10(CFU/ml) after treatment, replicate 2",[1]; drug conc. 0.5,9.176 log10(CFU/ml)
same,"log10(CFU/ml) after treatment, replicate 3",[1]; drug conc. 0.5,9.090 log10(CFU/ml)
same,average Δlog10(CFU/ml) (killing),[1]; drug conc. 0.5,0.056 log10(CFU/ml)
same,"log10(CFU/ml) after treatment, replicate 1",[1]; drug conc. 2.5,8.820 log10(CFU/ml)
same,"log10(CFU/ml) after treatment, replicate 2",[1]; drug conc. 2.5,8.954 log10(CFU/ml)
same,"log10(CFU/ml) after treatment, replicate 3",[1]; drug conc. 2.5,8.820 log10(CFU/ml)
same,average Δlog10(CFU/ml) (killing),[1]; drug conc. 2.5,0.233 log10(CFU/ml)
same,"log10(CFU/ml) after treatment, replicate 1",[1]; drug conc. 10,8.633 log10(CFU/ml)
same,"log10(CFU/ml) after treatment, replicate 2",[1]; drug conc. 10,8.996 log10(CFU/ml)
same,"log10(CFU/ml) after treatment, replicate 3",[1]; drug conc. 10,8.623 log10(CFU/ml)
same,average Δlog10(CFU/ml) (killing),[1]; drug conc. 10,0.346 log10(CFU/ml)
same,bactericidal effect against stationary-phase UPEC cultures,non-growing UPEC CFT073 [2],bactericidal effects
same,"log10(CFU/ml) after treatment, replicate 1",non-growing UPEC CFT073 [2]; [4],9.322 log10(CFU/ml)
same,"log10(CFU/ml) after treatment, replicate 2",non-growing UPEC CFT073 [2]; [4],8.602 log10(CFU/ml)
same,"log10(CFU/ml) after treatment, replicate 3",non-growing UPEC CFT073 [2]; [4],8.301 log10(CFU/ml)
same,average Δlog10(CFU/ml) (killing),"non-growing UPEC CFT073 [2]; E. coli in 1:4 CA-MHB (pH 7.4), drug conc. 0.25, vs 8.977 before treatment",0.236 log10(CFU/ml)
same,"log10(CFU/ml) after treatment, replicate 1",non-growing UPEC CFT073 [2]; [5],9.255 log10(CFU/ml)
same,"log10(CFU/ml) after treatment, replicate 2",non-growing UPEC CFT073 [2]; [5],8.903 log10(CFU/ml)
same,"log10(CFU/ml) after treatment, replicate 3",non-growing UPEC CFT073 [2]; [5],8.845 log10(CFU/ml)
same,average Δlog10(CFU/ml) (killing),"non-growing UPEC CFT073 [2]; E. coli in 1:4 CA-MHB (pH 7.4), drug conc. 0.5, vs 8.977 before treatment",-0.024 log10(CFU/ml)
same,"log10(CFU/ml) after treatment, replicate 1",non-growing UPEC CFT073 [2]; [6],9.322 log10(CFU/ml)
same,"log10(CFU/ml) after treatment, replicate 2",non-growing UPEC CFT073 [2]; [6],8.845 log10(CFU/ml)
same,"log10(CFU/ml) after treatment, replicate 3",non-growing UPEC CFT073 [2]; [6],8.699 log10(CFU/ml)
same,average Δlog10(CFU/ml) (killing),"non-growing UPEC CFT073 [2]; E. coli in 1:4 CA-MHB (pH 7.4), drug conc. 1, vs 8.977 before treatment",0.022 log10(CFU/ml)
same,"log10(CFU/ml) after treatment, replicate 1",non-growing UPEC CFT073 [2]; [7],9.176 log10(CFU/ml)
same,"log10(CFU/ml) after treatment, replicate 2",non-growing UPEC CFT073 [2]; [7],9.041 log10(CFU/ml)
same,"log10(CFU/ml) after treatment, replicate 3",non-growing UPEC CFT073 [2]; [7],8.230 log10(CFU/ml)
same,average Δlog10(CFU/ml) (killing),"non-growing UPEC CFT073 [2]; E. coli in 1:4 CA-MHB (pH 7.4), drug conc. 2.5, vs 8.977 before treatment",0.161 log10(CFU/ml)
same,"log10(CFU/ml) after treatment, replicate 1",non-growing UPEC CFT073 [2]; [8],8.362 log10(CFU/ml)
same,"log10(CFU/ml) after treatment, replicate 2",non-growing UPEC CFT073 [2]; [8],8.230 log10(CFU/ml)
same,"log10(CFU/ml) after treatment, replicate 3",non-growing UPEC CFT073 [2]; [8],8.000 log10(CFU/ml)
same,average Δlog10(CFU/ml) (killing),"non-growing UPEC CFT073 [2]; E. coli in 1:4 CA-MHB (pH 7.4), drug conc. 5, vs 8.977 before treatment",0.780 log10(CFU/ml)
same,"log10(CFU/ml) after treatment, replicate 1",non-growing UPEC CFT073 [2]; [9],7.491 log10(CFU/ml)
same,"log10(CFU/ml) after treatment, replicate 2",non-growing UPEC CFT073 [2]; [9],7.954 log10(CFU/ml)
same,"log10(CFU/ml) after treatment, replicate 3",non-growing UPEC CFT073 [2]; [9],8.079 log10(CFU/ml)
same,average Δlog10(CFU/ml) (killing),"non-growing UPEC CFT073 [2]; E. coli in 1:4 CA-MHB (pH 7.4), drug conc. 10, vs 8.977 before treatment",1.136 log10(CFU/ml)
same,"log10(CFU/ml) after treatment, replicate 1",non-growing UPEC CFT073 [2]; [10],7.114 log10(CFU/ml)
same,"log10(CFU/ml) after treatment, replicate 2",non-growing UPEC CFT073 [2]; [10],6.230 log10(CFU/ml)
same,"log10(CFU/ml) after treatment, replicate 3",non-growing UPEC CFT073 [2]; [10],8.000 log10(CFU/ml)
same,average Δlog10(CFU/ml) (killing),"non-growing UPEC CFT073 [2]; E. coli in LPM (pH 5.5), drug conc. 0.25, vs 7.350 before treatment",0.236 log10(CFU/ml)
same,"log10(CFU/ml) after treatment, replicate 1",non-growing UPEC CFT073 [2]; [11],7.114 log10(CFU/ml)
same,"log10(CFU/ml) after treatment, replicate 2",non-growing UPEC CFT073 [2]; [11],6.447 log10(CFU/ml)
same,"log10(CFU/ml) after treatment, replicate 3",non-growing UPEC CFT073 [2]; [11],7.699 log10(CFU/ml)
same,average Δlog10(CFU/ml) (killing),"non-growing UPEC CFT073 [2]; E. coli in LPM (pH 5.5), drug conc. 0.5, vs 7.350 before treatment",0.264 log10(CFU/ml)
same,"log10(CFU/ml) after treatment, replicate 1",non-growing UPEC CFT073 [2]; [12],6.845 log10(CFU/ml)
same,"log10(CFU/ml) after treatment, replicate 2",non-growing UPEC CFT073 [2]; [12],6.342 log10(CFU/ml)
same,"log10(CFU/ml) after treatment, replicate 3",non-growing UPEC CFT073 [2]; [12],7.204 log10(CFU/ml)
same,average Δlog10(CFU/ml) (killing),"non-growing UPEC CFT073 [2]; E. coli in LPM (pH 5.5), drug conc. 1, vs 7.350 before treatment",0.553 log10(CFU/ml)
same,"log10(CFU/ml) after treatment, replicate 1",non-growing UPEC CFT073 [2]; [13],6.301 log10(CFU/ml)
same,"log10(CFU/ml) after treatment, replicate 2",non-growing UPEC CFT073 [2]; [13],6.699 log10(CFU/ml)
same,"log10(CFU/ml) after treatment, replicate 3",non-growing UPEC CFT073 [2]; [13],6.580 log10(CFU/ml)
same,average Δlog10(CFU/ml) (killing),"non-growing UPEC CFT073 [2]; E. coli in LPM (pH 5.5), drug conc. 2.5, vs 7.350 before treatment",0.824 log10(CFU/ml)
same,"log10(CFU/ml) after treatment, replicate 1",non-growing UPEC CFT073 [2]; [14],6.000 log10(CFU/ml)
same,"log10(CFU/ml) after treatment, replicate 2",non-growing UPEC CFT073 [2]; [14],6.301 log10(CFU/ml)
same,"log10(CFU/ml) after treatment, replicate 3",non-growing UPEC CFT073 [2]; [14],5.903 log10(CFU/ml)
same,average Δlog10(CFU/ml) (killing),"non-growing UPEC CFT073 [2]; E. coli in LPM (pH 5.5), drug conc. 5, vs 7.350 before treatment",1.282 log10(CFU/ml)
same,"log10(CFU/ml) after treatment, replicate 1",non-growing UPEC CFT073 [2]; [15],6.146 log10(CFU/ml)
same,"log10(CFU/ml) after treatment, replicate 2",non-growing UPEC CFT073 [2]; [15],6.114 log10(CFU/ml)
same,"log10(CFU/ml) after treatment, replicate 3",non-growing UPEC CFT073 [2]; [15],5.544 log10(CFU/ml)
same,average Δlog10(CFU/ml) (killing),"non-growing UPEC CFT073 [2]; E. coli in LPM (pH 5.5), drug conc. 10, vs 7.350 before treatment",1.416 log10(CFU/ml)
same,EC50,non-growing UPEC CFT073 [3]; LPM pH 5.5,13.6 µM
same,EC50,"non-growing UPEC CFT073 [3]; pH 7.4, 1:4 CA-MHB",7.19 µM
same,MIC,S. aureus DSM2569,0.5 µM
COc1c(N2CCNC(C)C2)c(F)cc2c(=O)c(C(=O)O)cn(C3CC3)c12 (stereo not drawn) [Gatifloxacin],average Δlog10(CFU/ml) (killing),[1]; drug conc. 0.1,-0.121 log10(CFU/ml)
same,average Δlog10(CFU/ml) (killing),[1]; drug conc. 0.5,-0.040 log10(CFU/ml)
same,average Δlog10(CFU/ml) (killing),[1]; drug conc. 2.5,0.371 log10(CFU/ml)
same,average Δlog10(CFU/ml) (killing),[1]; drug conc. 10,0.946 log10(CFU/ml)
same,bactericidal effect against stationary-phase UPEC cultures,non-growing UPEC CFT073 [2],bactericidal effects
same,EC50,"non-growing UPEC CFT073 [3]; Escherichia coli, pH 7.4, 1:4 CA-MHB",0.709 µM
same,MIC,"S. aureus DSM2569; Staphylococcus aureus, DSM2569",0.5 µM
